Measured values published in publication PMC4869175, “Evidence that phytochrome functions as a protein kinase in plant light signalling” (Nature Communications, 2016).
pKd: −log10 of the molar value.

Key:
Experiment in all cases: Binding parameters of ATP by Scatchard plot using BODIPY-FL-ATP
D422R AsphyA mutant = target: T1, D422R AsphyA mutant (Avena sativa, UniProt P06593, D422R); conditions: Scatchard plot with BODIPY-FL-ATP; result in words
T1 construct: After preparing purified full-length AsphyA mutants; made in house; host or cells: Pichia pastoris GS115
Description: (§1) To estimate dissociation constant (Kd) and the number of binding sites (n) of ATP in AsphyA proteins, an ATP analogue BODIPY-FL-ATP (BODIPY FL 2′-(or-3′)-O-(N-(2-aminoethyl)urethane) adenosine triphosphate; Molecular Probes) was used. 0.5 μM AsphyA proteins were incubated with increasing concentration of BODIPY-FL-ATP (0.5–5 μM) for 10 min at 30 °C, and free (unbound) ATP analogue was separated from the ATP analogue-protein complex by using Amicon Ultra Centrifugal Filter with MWCO of 10,000 Da for 5 min at 4,000g. The spectrophotometric absorbance was then measured to determine the BODIPY-FL-ATP concentrations within flow-through and the complex solutions by using Shimadzu UV-1800 spectrophotometer. […] The concentrations of BODIPY-FL-ATP were also double-checked by measuring the emission intensity of BODIPY fluorophore at the excitation wavelength of 500 nm and emission wavelength of 515 nm. The fluorescence of free BODIPY-FL-ATP in the absence of any protein component was used as a linear standard curve. The Kd and n values were then calculated by a Scatchard plot of r/[BODIPY-FL-ATP]free versus r, where r is the molar ratio of [BODIPY-FL-ATP]bound to [AsphyA]total.
(§2) Supplementary Figure 12. Determination of binding parameters of ATP in AsphyA proteins. The number of binding sites (n) and dissociation constant (Kd) of ATP in AsphyA proteins were determined by Scatchard plots using an ATP analogue, BODIPY-FL-ATP (BODIPY® FL 2′-(or-3′)-O-(N-(2-aminoethyl)urethane) adenosine triphosphate). The n and Kd values were calculated from the slopes (-1/Kd) and x-axis intercepts (n) of the Scatchard plot of r/[BODIPY-FL-ATP]free versus r, where r was the molar ratio of [BODIPY-FL-ATP]bound to [AsphyA]total. The n values of full-length (FL) AsphyA and photosensory core (66-610) were both calculated at around one per polypeptide, and the Kd values were calculated at approximately 0.87 × 10^-6 M for FL-AsphyA, 0.72 × 10^-6 M for […]
(§3) level, possibly due to too low ATP binding.
(§4) (1 picture or pasted object on this page, not shown here)

K411L AsphyA mutant = target: T2, K411L AsphyA mutant (Avena sativa, UniProt P06593, K411L)
T2 construct: After preparing purified full-length AsphyA mutants; made in house; host or cells: Pichia pastoris GS115
Description: as §1, §2, §3, §4

T418D AsphyA mutant = target: T3, T418D AsphyA mutant (Avena sativa, UniProt P06593, T418D)
T3 construct: After preparing purified full-length AsphyA mutants; made in house; host or cells: Pichia pastoris GS115
Description: as §1, §2, §3, §4

full-length AsphyA = target: T4, full-length AsphyA (Avena sativa, UniProt P06593); conditions: as restated in Discussion; Scatchard plot with BODIPY-FL-ATP; read-out: Kd value (ATP-binding site)
T4 construct: Full-length phytochrome genes of AsPHYA; made in house; host or cells: Pichia pastoris GS115
T4 sequence (P06593 1-1129): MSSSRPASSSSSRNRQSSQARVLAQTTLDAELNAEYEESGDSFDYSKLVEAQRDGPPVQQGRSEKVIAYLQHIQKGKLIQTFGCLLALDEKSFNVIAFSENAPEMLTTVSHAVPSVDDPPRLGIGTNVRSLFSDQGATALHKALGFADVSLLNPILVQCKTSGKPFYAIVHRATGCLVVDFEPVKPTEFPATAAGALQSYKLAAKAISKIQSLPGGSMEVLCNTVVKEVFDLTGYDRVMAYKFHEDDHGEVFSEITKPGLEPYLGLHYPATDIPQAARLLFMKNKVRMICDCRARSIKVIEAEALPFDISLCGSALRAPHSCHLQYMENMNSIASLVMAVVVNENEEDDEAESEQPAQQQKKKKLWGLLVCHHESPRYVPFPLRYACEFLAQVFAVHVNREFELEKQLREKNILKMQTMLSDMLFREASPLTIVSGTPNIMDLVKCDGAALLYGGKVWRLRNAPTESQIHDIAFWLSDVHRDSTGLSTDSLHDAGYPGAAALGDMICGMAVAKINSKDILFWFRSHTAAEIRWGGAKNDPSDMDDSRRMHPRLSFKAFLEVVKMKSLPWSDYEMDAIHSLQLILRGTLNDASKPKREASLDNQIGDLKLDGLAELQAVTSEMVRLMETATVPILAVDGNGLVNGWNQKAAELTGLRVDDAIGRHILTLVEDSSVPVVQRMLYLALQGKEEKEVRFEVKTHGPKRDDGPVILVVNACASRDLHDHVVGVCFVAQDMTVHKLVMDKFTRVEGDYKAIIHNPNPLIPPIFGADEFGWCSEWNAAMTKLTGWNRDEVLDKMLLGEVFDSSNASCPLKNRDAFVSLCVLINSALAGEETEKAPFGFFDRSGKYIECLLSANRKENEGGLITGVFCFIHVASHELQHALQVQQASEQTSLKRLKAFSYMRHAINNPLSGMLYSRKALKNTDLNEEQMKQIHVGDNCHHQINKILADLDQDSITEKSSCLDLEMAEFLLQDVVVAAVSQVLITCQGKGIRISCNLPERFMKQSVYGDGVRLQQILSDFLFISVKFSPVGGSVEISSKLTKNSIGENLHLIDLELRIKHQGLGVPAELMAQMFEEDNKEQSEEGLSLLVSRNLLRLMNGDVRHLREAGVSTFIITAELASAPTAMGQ
Description: as §1, §2, §3, §4

[1] = target: T5, photosensory core of AsphyA (66-610) (Avena sativa, UniProt P06593); conditions: as restated in Discussion; Scatchard plot with BODIPY-FL-ATP; read-out: Kd value (ATP-binding site)
T5 construct: the PAS-GAF-PHY photosensory core (66–610aa) were also cloned into pPIC3.5K; made in house; host or cells: Pichia pastoris GS115
T5 sequence (P06593 66-610): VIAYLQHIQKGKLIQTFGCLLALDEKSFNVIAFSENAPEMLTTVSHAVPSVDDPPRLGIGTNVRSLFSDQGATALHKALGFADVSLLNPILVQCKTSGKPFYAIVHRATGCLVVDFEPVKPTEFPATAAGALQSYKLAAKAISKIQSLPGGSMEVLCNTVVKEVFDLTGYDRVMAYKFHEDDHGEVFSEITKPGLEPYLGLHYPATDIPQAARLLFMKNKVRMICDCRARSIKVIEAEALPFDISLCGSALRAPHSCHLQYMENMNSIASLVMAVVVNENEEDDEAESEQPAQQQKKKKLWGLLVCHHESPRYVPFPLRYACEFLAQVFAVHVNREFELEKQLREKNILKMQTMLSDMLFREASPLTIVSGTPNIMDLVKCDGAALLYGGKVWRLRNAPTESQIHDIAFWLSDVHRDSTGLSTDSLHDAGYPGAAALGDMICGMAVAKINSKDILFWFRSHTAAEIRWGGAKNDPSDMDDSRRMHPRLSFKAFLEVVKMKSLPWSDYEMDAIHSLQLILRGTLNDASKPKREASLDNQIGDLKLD
Description: as §1, §2, §3, §4

T3 sequence (P06593 whole entry T418D): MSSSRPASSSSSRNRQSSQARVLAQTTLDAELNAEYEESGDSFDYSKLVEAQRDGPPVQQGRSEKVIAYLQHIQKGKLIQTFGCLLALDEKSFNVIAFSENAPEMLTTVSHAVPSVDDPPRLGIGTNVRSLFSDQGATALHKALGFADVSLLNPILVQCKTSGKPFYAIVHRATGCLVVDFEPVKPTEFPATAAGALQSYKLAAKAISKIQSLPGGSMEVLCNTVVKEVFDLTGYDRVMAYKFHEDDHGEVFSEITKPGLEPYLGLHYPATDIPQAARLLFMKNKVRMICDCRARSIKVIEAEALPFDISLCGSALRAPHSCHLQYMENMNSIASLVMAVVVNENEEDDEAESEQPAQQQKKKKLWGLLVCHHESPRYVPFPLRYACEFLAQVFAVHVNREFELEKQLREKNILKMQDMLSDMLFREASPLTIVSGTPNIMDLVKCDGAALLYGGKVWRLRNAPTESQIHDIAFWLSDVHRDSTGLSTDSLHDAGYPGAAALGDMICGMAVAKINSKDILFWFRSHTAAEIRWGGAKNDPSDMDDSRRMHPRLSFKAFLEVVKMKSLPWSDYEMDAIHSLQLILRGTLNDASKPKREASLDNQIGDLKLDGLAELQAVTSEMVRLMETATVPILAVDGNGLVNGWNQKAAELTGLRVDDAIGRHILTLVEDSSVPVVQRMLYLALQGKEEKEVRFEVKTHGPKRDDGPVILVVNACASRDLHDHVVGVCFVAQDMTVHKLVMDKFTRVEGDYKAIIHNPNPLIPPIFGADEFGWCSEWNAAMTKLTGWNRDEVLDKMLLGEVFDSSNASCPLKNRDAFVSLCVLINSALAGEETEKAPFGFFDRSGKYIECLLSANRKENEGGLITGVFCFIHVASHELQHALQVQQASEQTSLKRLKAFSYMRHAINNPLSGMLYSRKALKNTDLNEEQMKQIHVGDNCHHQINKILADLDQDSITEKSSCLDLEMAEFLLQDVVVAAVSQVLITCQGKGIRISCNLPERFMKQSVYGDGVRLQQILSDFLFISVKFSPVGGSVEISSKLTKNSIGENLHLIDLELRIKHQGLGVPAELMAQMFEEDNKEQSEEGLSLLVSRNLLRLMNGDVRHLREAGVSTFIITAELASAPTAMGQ
T1 sequence (P06593 whole entry D422R): as the sequence (P06593 whole entry T418D) above, with D418T, D422R counted along it
T2 sequence (P06593 whole entry K411L): as the sequence (P06593 whole entry T418D) above, with K411L, D418T counted along it

SMILES: Nc1ncnc2c1ncn2[C@@H]1O[C@H](COP(=O)(O)OP(=O)(O)OP(=O)(O)O)[C@@H](O)[C@H]1O [ATP]
- dissociation constant (Kd) of ATP (D422R AsphyA mutant): could not obtain the Kd value at micromolar level
- pKd (K411L AsphyA mutant): ~5.88
- pKd (T418D AsphyA mutant): 5.32
- pKd (full-length AsphyA): 6.06
- pKd [1]: 6.14
